Laboratory results: patent US4616009A, “Neuroleptic indole-3-carboxamide derivatives” (Yoshitomi Pharmaceutical Industries, Ltd., priority 1983, dated 1986)
Like-named read-outs stand apart in the source and are kept apart here.

Columns and labels:
[1] = reported in U.S. Pat. No. 3,527,761 / J. Med. Chem. 14, 1054 (1971); cited from earlier work
[2] = reported in U.S. Pat. No. 3,527,761 / J. Med. Chem. 14, 1054 (1971); cited from earlier work; remark: listed apart in the source
apomorphine [3] = assay: Antiapomorphine activity in mice (spontaneous motility, Animex); format: in vivo, mice (male dd-strain); conditions: Mus musculus, 60 min before apomorphine hydrochloride 0.5 mg/kg s.c., dose for 50% suppression of spontaneous motility of control group over 20 min
Description: Antiapomorphine Activity in Mice
Groups of 5 male dd-strain mice were used. Test compounds were orally or intraperitoneally administered and 60 minutes thereafter, 0.5 mg/kg of apomorphine hydrochloride was subcutaneously administered. Immediately thereafter, spontaneous motility of the mice was measured with the aid of Animex (manufactured by Columbus Company, U.S.A.) for 20 minutes. The procedure was repeated three times with respective groups. The dose of test compounds required for 50% suppression of spontaneous motility of control group was graphically intraporated and determined as ED50 value.

[4] = Acute toxicity in mice, oral administration; format: in vivo; conditions: 500 mg/kg, 5 days observation, male mice
Excerpt: The acute toxicity of the compounds of the present invention was studied in 5 male mice weighing 30 to 45 g.

[5] = reported; cited from earlier work
[6] = antihypertensive activity; conditions: according to studies of the present inventors
apomorphine [7] = assay: apomorphine-antagonistic activity (studies of the present inventors); conditions: according to studies of the present inventors
[8] = prior art; cited from earlier work

Compound | ED50 (apomorphine [3]; po) [mg/kg] | also measured
O=C(NC1CCN(CCc2c[nH]c3ccccc23)CC1)c1c[nH]c2ccccc12 [3-{2-[4-(3-indolecarboxamido)-piperidino]ethyl}indole] |  | antihistaminic activity [1]: antihistaminic activities; antihypertensive activity [2]: having antihypertensive
CCN1CCCC1CNC(=O)c1c(C)[nH]c2ccccc12 (stereo not shown) [Example 1, N-(1-ethyl-2-pyrrolidinylmethyl)-2-methylindole-3-carboxamide] | 17 | 
Cc1[nH]c2ccc(F)cc2c1C(=O)NC1CCN(Cc2ccccc2)CC1 [Example 2, N-(1-benzyl-4-piperidyl)-5-fluoro-2-methylindole-3-carboxamide] | 4.6 | mortality (acute toxicity) [4]: All animals were survived
O=C(NC1CCN(Cc2ccccc2)CC1)c1c[nH]c2ccc(F)cc12 [Example 3, N-(1-benzyl-4-piperidyl)-5-fluoroindole-3-carboxamide] | 9.5 | 
Cc1c(C(=O)NC2CCN(Cc3ccccc3)CC2)c2cc(F)ccc2n1C [Example 4, N-(1-benzyl-4-piperidyl)-5-fluoro-1,2-dimethylindole-3-carboxamide] | 27 | 
Cc1[nH]c2ccccc2c1C(=O)NC1CCN(Cc2ccccc2)CC1 [Example 7, N-(1-benzyl-4-piperidyl)-2-methylindole-3-carboxamide] | 8.7 | 
O=C(NC1CCN(Cc2ccccc2)CC1)c1c[nH]c2ccccc12 [Example 8, N-(1-Benzyl-4-piperidyl)indole-3-carboxamide] | 7 | 
CCN1CCCC1CNC(=O)c1c(C)[nH]c2ccc(Cl)cc12 (stereo not shown) [Example 9, 5-Chloro-N-(1-ethyl-2-pyrrolidinylmethyl)-2-methylindole-3-carboxamide] | 30 | 
CCN1CCCC1CNC(=O)c1c(C)[nH]c2ccc(F)cc12 (stereo not shown) [Example 10, N-(1-Ethyl-2-pyrrolidinylmethyl)-5-fluoro-2-methylindole-3-carboxamide] |  | ED50 (apomorphine [3]; ip): 10 mg/kg
Cc1[nH]c2ccc(F)cc2c1C(=O)NC1CCN(Cc2ccccc2)C1 (stereo not shown) [Example 12, N-(1-Benzyl-3-pyrrolidinyl)-5-fluoro-2-methylindole-3-carboxamide] | 5.6 | 
Cc1[nH]c2ccc(F)cc2c1C(=O)NC1CCN(Cc2ccc(Cl)cc2)CC1 [Example 13, N-[1-(p-Chlorobenzyl)-4-piperidyl]-5-fluoro-2-methylindole-3-carboxamide] | 5.6 | 
Cc1[nH]c2ccc(F)cc2c1C(=O)NC1CCN(Cc2ccc(F)cc2)CC1 [Example 14, 5-Fluoro-N-[1-(p-fluorobenzyl)-4-piperidyl]-2-methylindole-3-carboxamide] | 5.2 | 
Cc1[nH]c2ccc(F)cc2c1C(=O)NC1CCN(Cc2cccc(Cl)c2)CC1 [Example 18, N-[1-(m-Chlorobenzyl)-4-piperidyl]-5-fluoro-2-methylindole-3-carboxamide] | 24 | 
CCN1CCCC1CNC(=O)c1cc(S(N)(=O)=O)ccc1OC (stereo not shown) [Sulpiride, reference compound] | 330 | bioavailability in oral administration [5]: low bioavailability
O=C(NC1CCN(CCc2c[nH]c3ccccc23)CC1)c1ccccc1 [indoramin, 3-[2-(4-benzamido-1-piperidyl)-ethyl]indole] |  | antihistaminic activity [1]: exhibits antihistaminic activity; antihypertensive activity [6]: relatively strong; apomorphine-antagonistic activity (apomorphine [7]): weak; antihypertensive activity [2]: stronger antihypertensive activity; anticonvulsant activity [8]: anticonvulsant activity
